Columns and labels:
RalB [1] = target: T1, RalB (Homo sapiens, UniProt P11234); experiment: Ral activity pull-down assay with RalBP1 agarose beads in cells; format: cell-based; parameters: endogenous in cells; host or cells: H2122 and H358 human lung cancer cells; conditions: H2122 and H358 cells, 10 μM compound, 3 hrs
T1 sequence (P11234 1-206): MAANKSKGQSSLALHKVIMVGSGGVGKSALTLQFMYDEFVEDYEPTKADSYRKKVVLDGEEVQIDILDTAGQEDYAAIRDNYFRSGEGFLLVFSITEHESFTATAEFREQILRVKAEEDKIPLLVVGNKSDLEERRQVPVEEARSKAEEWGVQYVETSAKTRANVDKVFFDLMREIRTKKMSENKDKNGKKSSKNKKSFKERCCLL
Method: (§1) FIGS. 6A-6E show the cellular uptake of Ral inhibitors in vitro. H2122 human lung cancer cells were treated with 10 μM of RBC8 (FIG. 6A), BQU57 (FIG. 6B), BQU85 (FIG. 6C), and RBC5 (FIG. 6D). Cells were collected at different time points (1, 5, 15, 30 and 60 min), and drug concentrations in cells determined using LC/MS-MS methods (n=3 for each time point). […] Cells were grown under anchorage-independent conditions and treated with 10 μM compounds for 3 hours. Ral activity in cell lysates were then determined using the pull down assay with RalBP1 agarose beads. Data represent three independent experiments.
(§2) To confirm that Ral activity is inhibited in H2122 and H358 cells by drug treatment, we performed the Ral activity pull-down assay. Cells were treated with drug for 3 hrs, collected and Ral activity measured using the RalBP1 pull-down assay kit (Millipore #14-415). RBC8 and BQU57 but not RBC5 inhibited both RalA and RalB activity in both cell lines (FIG. 6E).

RalA [2] = target: T2, RalA (Homo sapiens, UniProt P11233); experiment: as above; format: cell-based; parameters: endogenous in cells; host or cells: H2122 and H358 human lung cancer cells; conditions: H2122 and H358 cells, 10 μM compound, 3 hrs
T2 sequence (P11233 1-206): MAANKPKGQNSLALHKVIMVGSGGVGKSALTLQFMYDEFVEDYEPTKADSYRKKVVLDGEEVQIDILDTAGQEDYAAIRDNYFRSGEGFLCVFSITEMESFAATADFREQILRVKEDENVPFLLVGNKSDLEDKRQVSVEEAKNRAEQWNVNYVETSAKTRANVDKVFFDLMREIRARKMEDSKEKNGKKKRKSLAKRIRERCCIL
Method: as §1, §2

RhoA = target: T3, RhoA (Homo sapiens, UniProt P61586); experiment: RhoA activity pull-down in H2122 xenograft tumors; format: in vivo; conditions: BQU57 treated H2122 tumors, 3 h post-dose
T3 construct: from tissue; host or cells: H2122 xenograft tumours from nude mice
Description: Activity assay kits for Ras (#BK008) and RhoA (#BK036) were obtained from Cytoskeleton (Denver, Colo.). We used an ELISA for Ral activity based on selective binding of active RalA-GTP to its effector protein RalBP1.
(§3) Finally, we evaluated Ral GTPase activity in vivo in the H2122 xenografts. Nude mice were inoculated with 5×10^6 cells H2122 cells s.c. at four sites per mice. Tumor size reached an average of 250 mm^3 in ten days, at which time mice were given a signal i.p. dose of RBC8 or BQU57 at various concentrations. Tumors were then collected 3 h after injection of RBC8 or BQU57. RalA and RalB activity in tumor samples were then measured using the RalBP1 pull-down assay kit (Millipore #14-415). Ras and RhoA activity in tumor samples were measured using the respective pull-down assay kits. All the activity assays used western blotting as the final readout. For quantification of the immunoblots, the bands on each blot were first normalized to their respective internal control (10 ng of recombinant Ral, Ras, or […] protein run in the last lane) the numbers were then compared across different blots, each of which represented one treatment condition. Mice bearing H2122 tumors (median size 250 mm^3) were given a single intraperitoneal dose of RBC8 (50 mg/kg) or BQU57 (10/20/50 mg/kg) and tumors collected 3 h post-dose.

[3] = test system: H2122 human lung cancer cells; experiment: Cellular uptake, LC/MS-MS of cell lysates; format: in vitro ADME; conditions: 10 μM, 1-60 min
Method: To quantitate how well the test compounds get into cells, H2122 human lung cancer cells were seeded at 3×10^5 cells per well in 6-well plates and let sit for 16 h. Compounds (10 μM) were individually dosed in triplicate; cells were then collected into 500 μl ice-cold ACN:MeOH:H2O (1:1:1) at different time points (1, 5, 15, 30 and 60 min). Drug concentrations in cell lysates were then determined using LC/MS-MS methods as described with respect to the pharmacokinetic and pharmacodynamic studies in mice, described in detail in Example 5, below.

[4] = Pharmacokinetics after single intraperitoneal injection; format: in vivo; conditions: 50.0 mg/kg i.p., n = 3, nude mice
Method: Inhibition of Ral activity and tumor growth were evaluated in human lung cancer mouse models. Pharmacokinetics (PK) of RBC8 and BQU57 were first analyzed in nude mice to test bioavailability. Following a single intraperitoneal injection (50 mg/Kg), blood samples were collected at time intervals from 0 to 5 h post-dose (9 time points).

RalB [5] = target: T1, RalB; experiment: RalBP1 pull-down of Ral activity in H2122 xenograft tumors; format: in vivo; conditions: single i.p. dose, RBC8 50 mg/kg or BQU57 10/20/50 mg/kg, tumors collected 3 h post-dose
Method: as §3

RalA [6] = target: T2, RalA; experiment: as above; format: in vivo; conditions: single i.p. dose, RBC8 50 mg/kg or BQU57 10/20/50 mg/kg, tumors collected 3 h post-dose
Method: as §3

T3 sequence (P61586 whole entry): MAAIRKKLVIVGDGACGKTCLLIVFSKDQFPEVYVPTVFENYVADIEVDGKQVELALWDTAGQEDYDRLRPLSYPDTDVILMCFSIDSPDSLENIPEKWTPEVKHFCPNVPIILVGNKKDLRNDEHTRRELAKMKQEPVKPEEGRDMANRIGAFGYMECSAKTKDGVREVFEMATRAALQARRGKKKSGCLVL

Row | T1/2 [4] | Structure (SMILES) | inhibition of RalB activity (RalB [1]) | inhibition of RalA activity (RalA [2]) | inhibition of RhoA activity in tumors (RhoA) | cellular uptake [3] | Co [4] | half-life ([4]; mouse, blood, ip) | AUC(0-t) ([4]; mouse, blood, ip, read-out: AUC0-5 hr) | inhibition of RalB activity in tumors (RalB [5]) | inhibition of RalA activity in tumors (RalA [6])
1 | – | Cc1nn(C)c2c1C(c1ccc(C(F)(F)F)cc1)C(C#N)=C(N)O2 (stereo not shown) [BQU57, 6-amino-1,3-dimethyl-4-(4-(trifluoromethyl)phenyl)-1,4-dihydropyrano[2,3-c]pyrazole-5-carbonitrile] | inhibited | inhibited | no significant inhibition | readily get into cells | 41.6 ± 5.1 µM | 1.5 ± 0.11 h | 28600 ± 2100 ng·h/mL | significant inhibition | significant inhibition
2 | 0.58 ± 0.26 h | COc1ccc(OC)c(C2C(C#N)=C(N)Oc3n[nH]c(-c4ccc5ccccc5c4)c32)c1 (stereo not shown) [RBC8] | inhibited | inhibited | – | readily get into cells | 41.2 ± 4.2 µM | – | – | significant inhibition | significant inhibition

Reference: patent US11472812B2, “Anti-cancer compounds targeting Ral GTPases and methods of using the same” (The Regents of the University of Colorado, a body corporate, priority 2014, dated 2022)
